Experimental findings from ChEMBL document CHEMBL1201862, “PubChem BioAssay data set” (2004) are described below.

In series [1] the target is T1, Cytochrome P450 1A2 (Homo sapiens, UniProt P05177).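 Also: PubChem cytochrome P450 panel assay, CYP1A2 panel member.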
T1 sequence (P05177 whole entry): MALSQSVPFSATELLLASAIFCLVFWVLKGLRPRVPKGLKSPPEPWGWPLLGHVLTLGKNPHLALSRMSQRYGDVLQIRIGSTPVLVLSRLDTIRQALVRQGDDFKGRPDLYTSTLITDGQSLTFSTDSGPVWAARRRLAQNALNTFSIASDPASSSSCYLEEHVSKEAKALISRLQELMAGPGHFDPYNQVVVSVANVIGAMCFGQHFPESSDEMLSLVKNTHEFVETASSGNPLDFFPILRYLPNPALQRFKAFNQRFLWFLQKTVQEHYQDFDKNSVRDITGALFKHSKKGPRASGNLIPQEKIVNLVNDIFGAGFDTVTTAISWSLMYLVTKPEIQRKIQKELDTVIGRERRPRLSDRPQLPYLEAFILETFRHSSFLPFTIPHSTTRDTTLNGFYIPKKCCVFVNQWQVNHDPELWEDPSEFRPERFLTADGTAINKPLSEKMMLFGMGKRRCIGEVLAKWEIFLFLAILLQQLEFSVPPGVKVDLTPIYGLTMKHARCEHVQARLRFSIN

Series [2] addresses CAAX prenyl protease 1 (Saccharomyces cerevisiae S288c, UniProt P47154). Briefly: Ste24 protease inhibitors, dose response, biochemical, S. cerevisiae, plate reader, cherry-pick (AID 488815).
Series [3] addresses Trypsin (Sus scrofa, UniProt P00761). The series can be described thus: porcine trypsin inhibitors, dose response, selectivity assay for Rce1 protease inhibitor project, biochemical, quenched peptide fluorescence, cherry-pick (AID 488789).
The target of series [4] is T2, Estrogen receptor (Homo sapiens, UniProt P03372).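 Also: potency for inhibiting coactivator peptide recruitment to the receptor.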
T2 sequence (P03372 whole entry): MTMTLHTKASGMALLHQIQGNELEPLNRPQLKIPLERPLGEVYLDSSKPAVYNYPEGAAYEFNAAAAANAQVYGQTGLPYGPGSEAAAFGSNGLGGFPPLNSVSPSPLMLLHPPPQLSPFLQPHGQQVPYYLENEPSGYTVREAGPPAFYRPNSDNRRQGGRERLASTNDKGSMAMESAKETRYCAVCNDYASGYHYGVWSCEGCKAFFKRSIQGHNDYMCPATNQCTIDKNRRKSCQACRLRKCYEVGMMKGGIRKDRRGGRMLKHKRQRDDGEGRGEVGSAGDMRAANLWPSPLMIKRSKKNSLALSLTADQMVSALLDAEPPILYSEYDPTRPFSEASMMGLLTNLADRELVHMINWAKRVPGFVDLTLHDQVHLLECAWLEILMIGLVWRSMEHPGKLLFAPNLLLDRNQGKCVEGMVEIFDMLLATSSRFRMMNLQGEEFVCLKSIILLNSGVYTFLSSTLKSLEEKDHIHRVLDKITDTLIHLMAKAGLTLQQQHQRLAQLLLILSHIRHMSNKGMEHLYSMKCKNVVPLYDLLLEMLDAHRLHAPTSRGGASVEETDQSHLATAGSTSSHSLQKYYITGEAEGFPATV

The target of series [5] is Large T antigen (Simian virus 40, UniProt P03070). It is filed as functional, Betapolyomavirus macacae.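 Also: Confirmatory-stage PubChem screen for compounds that inhibit SV40 T antigen.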
Series [6] has as its target Protein Tat (Human immunodeficiency virus type 1 group M subtype B (isolate HXB2)(HIV-1), UniProt P04608). It is filed as functional.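 Also: tat binding to TAR RNA read out by fluorescence polarization.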
Series [7] in a line: cytotoxicity in MIN6 insulinoma cells, dose response, cytotoxicity control, cell-based, mouse insulinoma (AID 2122).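 Also: confirmatory high-throughput counterscreen run to flag cytotoxic compounds; mouse MIN-6 beta cells carrying an insulin promoter eGFP reporter.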 Format: functional.
The target in series [8] is T3, Rac GTPase-activating protein 1 (Homo sapiens, UniProt Q9H0H5).
T3 sequence (Q9H0H5 whole entry): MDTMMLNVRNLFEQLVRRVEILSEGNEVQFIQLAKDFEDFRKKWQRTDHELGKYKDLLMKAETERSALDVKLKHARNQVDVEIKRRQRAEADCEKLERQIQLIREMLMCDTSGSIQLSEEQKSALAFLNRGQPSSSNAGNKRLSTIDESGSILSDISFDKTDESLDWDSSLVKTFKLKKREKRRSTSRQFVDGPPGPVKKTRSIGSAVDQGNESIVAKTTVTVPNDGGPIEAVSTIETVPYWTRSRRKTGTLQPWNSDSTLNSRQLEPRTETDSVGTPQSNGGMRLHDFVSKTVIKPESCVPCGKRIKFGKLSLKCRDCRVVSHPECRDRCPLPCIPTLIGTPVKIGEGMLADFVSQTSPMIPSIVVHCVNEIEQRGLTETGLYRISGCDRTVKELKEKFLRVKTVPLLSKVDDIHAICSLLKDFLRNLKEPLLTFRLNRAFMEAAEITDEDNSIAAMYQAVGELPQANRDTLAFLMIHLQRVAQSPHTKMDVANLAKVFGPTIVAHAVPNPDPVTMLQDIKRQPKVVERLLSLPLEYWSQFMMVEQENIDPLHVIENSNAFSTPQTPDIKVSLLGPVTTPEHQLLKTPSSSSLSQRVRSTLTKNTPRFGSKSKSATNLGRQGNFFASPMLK
Briefly: MgcRacGAP GTPase-activating activity inhibitors, confirmation, biochemical, ADP Hunter fluorescence, primary and confirmatory (AID 624330). It is filed as functional.

Series [9] in a line: THP-1 cell cytotoxicity, dose response, cytotoxicity control for Vif-APOBEC3G degradation inhibitor project, THP-1 cells (AID 1117359). Format: functional. The following applies: Human immunodeficiency virus 1, THP-1.
The target of series [10] is T4, Alkaline phosphatase, tissue-nonspecific isozyme (Homo sapiens, UniProt P05186).
T4 sequence (P05186 whole entry): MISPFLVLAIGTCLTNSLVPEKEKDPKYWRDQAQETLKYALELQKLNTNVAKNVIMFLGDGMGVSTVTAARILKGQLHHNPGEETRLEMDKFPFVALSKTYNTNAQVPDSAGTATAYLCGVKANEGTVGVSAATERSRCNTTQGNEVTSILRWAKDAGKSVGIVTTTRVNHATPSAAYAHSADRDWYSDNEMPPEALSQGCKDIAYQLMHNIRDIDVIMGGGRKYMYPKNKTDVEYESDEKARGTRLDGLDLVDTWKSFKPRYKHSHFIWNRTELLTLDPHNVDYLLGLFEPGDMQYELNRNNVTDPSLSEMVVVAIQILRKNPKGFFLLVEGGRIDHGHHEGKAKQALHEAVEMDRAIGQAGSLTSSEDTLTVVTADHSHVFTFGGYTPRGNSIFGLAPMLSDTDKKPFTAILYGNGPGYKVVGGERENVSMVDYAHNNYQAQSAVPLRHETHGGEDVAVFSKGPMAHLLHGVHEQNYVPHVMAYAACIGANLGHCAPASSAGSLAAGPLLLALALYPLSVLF
Briefly: TNAP enzyme inhibition by screening hits, dose response, selectivity assay for mouse IAP inhibitor project, biochemical, human TNAP, uHTS hits (AID 488906). It is filed as functional.

For series [11], the target named is Intestinal-type alkaline phosphatase (Mus musculus, UniProt P24822). Briefly: PubChem AID 488785. Format: functional.
The nature of series [12]: insulin promoter down-regulators in MIN6 cells, imaging, high-content screening, mouse beta cells (AID 1628). Format: functional.
Series [13] deals with Intestinal-type alkaline phosphatase (Homo sapiens, UniProt P09923). Briefly: inhibition of human intestinal alkaline phosphatase – biochemical, dose response (AID 488876). Format: functional.
Series [14] has as its system H4. The series can be described thus: Luminescence Cell-Based Dose Response HTS to Identify Activators of 5'UTR Stem-Loop Driven Prion Protein mRNA Translation in H4 Neuroglioblastoma Cells. [Related pubchem assays: 1829 (Project Summary), 1814 (Primary HTS)]. It is filed as functional. The settings on record: Homo sapiens.
The target of series [15] is Voltage-dependent T-type calcium channel subunit alpha-1H (Homo sapiens, UniProt O95180). Briefly: Cav3.2 T-type channel blockers, cell-based, SynthLib3 library, HEK293 Cav3.2, fluorescence (AID 493041). It is filed as functional.
In series [16] the target is Exodeoxyribonuclease V (Escherichia coli (strain K12), UniProt P04993+P07648+P08394). Briefly: E. coli RecBCD inhibitors, dose response, counter-screen for AddAB inhibitor project, absorbance, V66 E. coli, mutant T4 phage (AID 492957). Format: functional, cell-based, Escherichia coli str. K-12 substr. MG1655. For orientation: A counterscreen serves to expose hits that act by an unwanted route or on another target.

The subject of series [17] is Vero. Briefly: cells. Format: functional. The settings on record: Chlorocebus sabaeus.
Series [18] in a line: Counterscreen for AddAB inhibitors: absorbance-based bacterial cell-based high throughput dose response assay for inhibitors of bacterial viability. [Related pubchem assays (depositor defined):AID435030, AID449728, AID449731, AID488942, AID488955, AID488956]. Format: functional.
In series [19] the test system is BJ. Briefly: cytotoxicity toward BJ-TERT fibroblasts, dose response, cell-based, RAS-independent, luminescence (AID 1933). The following applies: Homo sapiens. It is filed as functional.
The test system of series [20] is BJ. Briefly: cytotoxicity toward BJ-TERT-LT-ST fibroblasts, dose response, cell-based, RAS-independent, luminescence (AID 1935).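 Also: BJ fibroblasts immortalized with TERT plus LT and ST oncogenes.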 Format: functional. The following applies: Homo sapiens.
Series [21] in a line: cytotoxicity toward DRD oncogenic fibroblasts, dose response, cell-based, non-viral oncogenic, luminescence (AID 1934). Format: functional. The settings on record: Homo sapiens.
Series [22] has as its target T5, Delta-type opioid receptor (Homo sapiens, UniProt P41143). Briefly: SAR Analysis of Agonists of the DOR Receptor using an Image-Based Assay - Set 2. [Related pubchem assays (depositor defined):AID1777, AID1785, AID1786, AID1966, AID2133, AID2136, AID2284, AID2285, AID2370]. It is filed as functional.
Series [23] deals with T6, Kappa-type opioid receptor (Homo sapiens, UniProt P41145). Briefly: SAR analysis of Agonists of the Kappa Opioid Receptor (KOR) using an Image-Based Assay - Set 2. [Related pubchem assays (depositor defined):AID1777, AID1786, AID1966, AID2133, AID2136, AID2284, AID2285, AID2359]. Format: functional.
Series [24] concerns the target T6, Kappa-type opioid receptor. The series can be described thus: SAR analysis of small molecule agonists of the kappa opioid receptor via a luminescent beta-arrestin assay - Set 2. [Related pubchem assays (depositor defined):AID1777, AID1785, AID1786, AID1966, AID2133, AID2136, AID2284, AID449737]. Format: functional.
For series [25], the target named is T5, Delta-type opioid receptor. Briefly: SAR Analysis of Antagonists of the DOR Receptor using an Image-Based Assay - Set 2. [Related pubchem assays (depositor defined):AID1777, AID1785, AID1786, AID1966, AID2133, AID2136, AID2284, AID2285, AID2357]. It is filed as functional.
For series [26], the target named is T7, Mu-type opioid receptor (Homo sapiens, UniProt P35372). Briefly: SAR Analysis of Antagonists of the MOR Receptor using an Image-Based Assay - Set 2. [Related pubchem assays (depositor defined):AID1777, AID1785, AID1786, AID1966, AID2133, AID2136, AID2284, AID2285, AID2420]. Format: functional.
The target of series [27] is T7, Mu-type opioid receptor. Briefly: SAR Analysis of Agonists of the MOR Receptor using an Image-Based Assay - Set 2. [Related pubchem assays (depositor defined):AID1777, AID1785, AID1786, AID1966, AID2133, AID2136, AID2284, AID2285, AID2352]. It is filed as functional.
Series [28] concerns the target T6, Kappa-type opioid receptor. Briefly: SAR analysis of Antagonists of the Kappa Opioid Receptor (KOR) using an Image-Based Assay - Set 2. [Related pubchem assays (depositor defined):AID1777, AID1785, AID1786, AID1966, AID2133, AID2136, AID2284, AID2285, AID2348]. It is filed as functional.

Active and inactive are the calls of the source.

T6 sequence (P41145 whole entry): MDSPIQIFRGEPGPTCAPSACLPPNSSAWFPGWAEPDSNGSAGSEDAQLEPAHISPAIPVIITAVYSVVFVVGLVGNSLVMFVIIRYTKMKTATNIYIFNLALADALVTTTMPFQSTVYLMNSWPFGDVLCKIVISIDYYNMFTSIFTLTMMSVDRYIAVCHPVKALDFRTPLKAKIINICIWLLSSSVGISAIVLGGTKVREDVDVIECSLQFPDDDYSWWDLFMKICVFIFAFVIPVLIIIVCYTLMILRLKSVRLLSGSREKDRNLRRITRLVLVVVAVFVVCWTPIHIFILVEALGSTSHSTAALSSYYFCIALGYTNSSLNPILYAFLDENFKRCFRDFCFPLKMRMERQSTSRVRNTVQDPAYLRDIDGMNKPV
T5 sequence (P41143 whole entry): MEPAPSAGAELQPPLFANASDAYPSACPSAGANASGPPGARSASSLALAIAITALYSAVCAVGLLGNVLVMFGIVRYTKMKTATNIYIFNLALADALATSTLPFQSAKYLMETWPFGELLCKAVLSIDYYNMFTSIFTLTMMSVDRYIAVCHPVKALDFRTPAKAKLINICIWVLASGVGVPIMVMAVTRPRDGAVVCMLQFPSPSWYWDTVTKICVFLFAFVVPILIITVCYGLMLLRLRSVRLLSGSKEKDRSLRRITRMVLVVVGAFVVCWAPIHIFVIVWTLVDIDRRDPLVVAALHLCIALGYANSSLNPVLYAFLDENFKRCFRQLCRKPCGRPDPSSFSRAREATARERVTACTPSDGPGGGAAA
T7 sequence (P35372 whole entry): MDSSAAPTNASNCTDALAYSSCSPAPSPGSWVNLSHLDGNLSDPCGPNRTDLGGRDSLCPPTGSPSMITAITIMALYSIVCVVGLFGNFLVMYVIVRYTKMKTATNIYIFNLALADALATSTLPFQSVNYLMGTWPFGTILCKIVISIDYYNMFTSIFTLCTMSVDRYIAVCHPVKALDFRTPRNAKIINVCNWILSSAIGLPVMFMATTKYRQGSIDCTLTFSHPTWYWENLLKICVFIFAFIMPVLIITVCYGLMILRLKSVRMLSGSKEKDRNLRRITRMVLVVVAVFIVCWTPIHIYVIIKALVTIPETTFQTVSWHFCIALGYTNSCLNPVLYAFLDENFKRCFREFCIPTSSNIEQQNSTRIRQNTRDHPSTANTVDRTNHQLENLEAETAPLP
Chain of Trypsin (P00761 whole entry): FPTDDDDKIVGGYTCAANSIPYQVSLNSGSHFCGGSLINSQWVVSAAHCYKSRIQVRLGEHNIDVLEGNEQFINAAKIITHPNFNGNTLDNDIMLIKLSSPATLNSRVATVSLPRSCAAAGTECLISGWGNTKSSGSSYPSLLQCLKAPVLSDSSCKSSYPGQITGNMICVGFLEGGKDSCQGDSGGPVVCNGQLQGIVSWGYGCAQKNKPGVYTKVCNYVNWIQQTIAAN
Chain of Intestinal-type alkaline phosphatase (Homo sapiens, UniProt P09923) (P09923 whole entry): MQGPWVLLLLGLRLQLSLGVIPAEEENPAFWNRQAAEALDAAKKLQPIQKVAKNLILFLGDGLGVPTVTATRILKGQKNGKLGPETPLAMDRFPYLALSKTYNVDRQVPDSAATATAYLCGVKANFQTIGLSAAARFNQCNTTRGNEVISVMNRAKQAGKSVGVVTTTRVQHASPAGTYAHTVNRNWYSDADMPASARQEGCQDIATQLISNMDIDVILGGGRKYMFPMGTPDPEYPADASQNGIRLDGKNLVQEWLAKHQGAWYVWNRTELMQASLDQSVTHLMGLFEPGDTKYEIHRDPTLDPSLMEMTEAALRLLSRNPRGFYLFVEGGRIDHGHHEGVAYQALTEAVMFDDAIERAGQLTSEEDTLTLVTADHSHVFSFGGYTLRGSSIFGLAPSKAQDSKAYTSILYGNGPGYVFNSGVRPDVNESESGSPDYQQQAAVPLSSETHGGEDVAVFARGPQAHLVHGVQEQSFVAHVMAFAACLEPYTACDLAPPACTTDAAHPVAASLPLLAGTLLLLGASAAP
Chain of Protein Tat (P04608 whole entry): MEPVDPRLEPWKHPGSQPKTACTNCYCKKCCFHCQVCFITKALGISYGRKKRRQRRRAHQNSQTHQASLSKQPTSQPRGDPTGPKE
Chain of CAAX prenyl protease 1 (P47154 whole entry): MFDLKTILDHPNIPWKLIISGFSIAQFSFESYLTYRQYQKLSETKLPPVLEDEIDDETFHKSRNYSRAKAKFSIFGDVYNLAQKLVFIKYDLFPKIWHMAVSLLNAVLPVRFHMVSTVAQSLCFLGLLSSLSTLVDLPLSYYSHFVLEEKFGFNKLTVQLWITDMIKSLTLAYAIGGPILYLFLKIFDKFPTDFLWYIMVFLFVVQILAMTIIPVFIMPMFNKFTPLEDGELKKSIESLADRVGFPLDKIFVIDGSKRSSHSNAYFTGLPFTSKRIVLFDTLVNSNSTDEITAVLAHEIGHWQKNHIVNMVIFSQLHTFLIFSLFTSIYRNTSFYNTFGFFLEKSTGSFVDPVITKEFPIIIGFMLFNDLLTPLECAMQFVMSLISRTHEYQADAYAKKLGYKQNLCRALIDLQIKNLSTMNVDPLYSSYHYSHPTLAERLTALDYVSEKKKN
Chain of Large T antigen (P03070 whole entry): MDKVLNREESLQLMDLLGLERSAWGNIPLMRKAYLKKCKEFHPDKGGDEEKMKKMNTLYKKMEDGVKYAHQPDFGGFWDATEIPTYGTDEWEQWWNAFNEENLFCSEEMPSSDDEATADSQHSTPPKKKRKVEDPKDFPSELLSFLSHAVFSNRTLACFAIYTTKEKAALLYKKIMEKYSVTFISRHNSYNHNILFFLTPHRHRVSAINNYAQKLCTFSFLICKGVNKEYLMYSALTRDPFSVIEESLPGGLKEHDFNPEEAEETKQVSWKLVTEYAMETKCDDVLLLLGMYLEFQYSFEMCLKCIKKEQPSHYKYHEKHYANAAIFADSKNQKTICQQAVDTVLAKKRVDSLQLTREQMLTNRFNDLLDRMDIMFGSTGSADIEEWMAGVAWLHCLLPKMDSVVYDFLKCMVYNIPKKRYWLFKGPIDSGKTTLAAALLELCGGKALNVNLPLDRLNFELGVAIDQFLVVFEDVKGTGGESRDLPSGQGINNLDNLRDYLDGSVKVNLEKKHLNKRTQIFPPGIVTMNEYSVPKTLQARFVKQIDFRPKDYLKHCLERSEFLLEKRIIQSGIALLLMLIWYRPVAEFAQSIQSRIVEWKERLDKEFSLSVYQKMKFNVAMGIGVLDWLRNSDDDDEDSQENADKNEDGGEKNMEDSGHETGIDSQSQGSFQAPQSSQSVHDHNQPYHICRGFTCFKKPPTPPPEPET
Chain of Intestinal-type alkaline phosphatase (Mus musculus, UniProt P24822) (P24822 whole entry): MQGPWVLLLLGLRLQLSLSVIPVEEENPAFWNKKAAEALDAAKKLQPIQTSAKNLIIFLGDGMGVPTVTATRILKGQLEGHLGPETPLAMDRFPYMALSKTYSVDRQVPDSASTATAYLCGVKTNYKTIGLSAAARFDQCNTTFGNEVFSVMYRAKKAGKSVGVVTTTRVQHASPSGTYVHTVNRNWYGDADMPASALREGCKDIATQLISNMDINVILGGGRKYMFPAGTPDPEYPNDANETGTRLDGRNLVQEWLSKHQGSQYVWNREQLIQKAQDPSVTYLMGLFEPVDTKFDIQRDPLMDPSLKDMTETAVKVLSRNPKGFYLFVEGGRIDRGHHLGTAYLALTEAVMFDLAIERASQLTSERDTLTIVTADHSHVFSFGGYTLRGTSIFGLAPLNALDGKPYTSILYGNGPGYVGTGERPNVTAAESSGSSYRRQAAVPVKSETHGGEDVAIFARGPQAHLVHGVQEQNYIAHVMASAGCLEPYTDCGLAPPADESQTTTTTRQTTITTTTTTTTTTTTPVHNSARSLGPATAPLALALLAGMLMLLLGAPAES

For `Nc1ncnc2c1ncn2[C@H]1O[C@@H](C(=O)OCCO)[C@@H](O)[C@H]1O`, the AC50 result in series [1] was “inconclusive”.

As to `O=C(CSc1n[nH]c(-c2ccc(S(=O)(=O)N3CCCCC3)cc2)n1)Nc1nccs1`, the results for the AC50 in series [2] and in [3] were 8.82 µM (active) and 21.3 µM (active), respectively. Also, the IC50 in series [4] is on record as 47.2 µM (not active).

`C/N=c1\scc(-c2ccco2)n1/N=C/c1ccc(O)c(O)c1`: the IC50 in [5] is 25.5 µM (active); in series [6] it was > 100 µM (active); in series [7], 3.56 µM (active); in series [8], 30.3 µM (active); in series [10] it was 29.7 µM (active); in series [11], 1.7 µM (active). The results for the IC50 in series [12] and in series [13] were 6.81 µM (active) and 13.4 µM (active), respectively. The CC50 in series [9] was 9.16 µM (active). In series [14], the EC50 was 70.2 µM (active).

In the case of `CC(C)CCN1C[C@@H]2C(CNC(=O)c3cc(Cl)cc(Cl)c3)[C@@H]2C1` (stereo partly drawn), the EC50 in series [15] was 1.9 µM (active).

As for `O=Nc1ccc(O)c2ncccc12`, the IC50 in series [16] is > 119 µM (inactive); in series [18], 35.6 µM (inactive). Also, in [17], the CC50 was 9.69 µM (active). The EC50 in [19] is 12.9 µM (active); in [20], 8.73 µM (active); in series [21], 8.56 µM (active).

As for `Brc1ccc(CSc2nnc(-c3ccccn3)n2Cc2cccs2)cc1`, the EC50 was > 32 µM (inactive) in series [22], 1.1 µM (active) in [23], 1.85 µM (active) in [24] and > 32 µM (inactive) in series [27]. For the same molecule, the IC50 in series [25], in [26] and in series [28] was > 32 µM (inactive) throughout.

As usually defined, the AC50 is the concentration giving half of the maximal activity seen. Broadly, the IC50 is the midpoint of a concentration-inhibition curve. In general, CC50 refers to the concentration that lowers cell viability or growth by half. As usually defined, the EC50 is the concentration needed to bring the measured effect to its halfway point.
